In US8906953B2, “Pyrrolidine substitute flavones for the treatment of inflammatory disorders” (Piramal Enterprises Limited, priority 2010, dated 2014) one finds IC50 data, which are given here for one molecule.

SMILES strings stand for the structures. Where two headings read alike, the source gives them in different places.

Assay type in all cases: cell-based
One experiment relates to TNF-α. Nature of the experiment: LPS-induced TNF-α release from hPBMCs (ELISA). Conditions: Homo sapiens. Here is the method:
Cytokine production by lipopolysaccharides (LPS) in hPBMCs (human peripheral blood mononuclear cells) was measured as in reference, Physiol. Res. 2003, 52, 593-598, the disclosure of which is incorporated by reference for the teaching of the assay. Blood was collected from healthy donors into Potassium EDTA vacutainer tubes (BID vacutainer). The PBMC were isolated using gradient centrifugation in Histopaque-1077 solution (Sigma). Isolated PBMC were suspended in RPMI 1640 (Rosewell Park Memorial Institute) culture medium (Sigma-Aldrich Fine Chemicals, USA) containing 10% fetal bovine serum (FBS) (JRH, USA), 100 U/mL penicillin (Sigma Chemical Co. St Louis, Mo., USA) and 100 μg/mL streptomycin (Sigma Chemical Co. St Louis, Mo.). The cell concentration was adjusted to 1×10^6 cells/mL. The viability as determined by trypan blue dye exclusion was uniform Ly≧98%. The cell suspension (100 μL) was added to the wells of a 96-well culture plate. Following cell plating, 79 μL of the culture medium and 1 μL of various concentrations of test compounds (compounds of formula 1) (final concentration 0.001, 0.003, 0.005, 0.01, 0.025, 0.03, 0.05, 0.1, 0.25, 0.3 and 1 μM) dissolved in DMSO (dimethyl sulfoxide, Sigma, Mo., USA) were added to the cells. The final concentration of DMSO was adjusted to 0.5%. The vehicle (0.5% DMSO) was used as control. […] The plates were incubated for 30 minutes at 37° C. in an atmosphere of 5% CO2. Finally, 20 μL (10 μg/mL) per well of LPS, (Escherchia coli 0127:B8, Sigma Chemical Co., St. Louis, Mo.) was added to the wells of the incubated plates, for a final concentration of 1 μg/mL. The plates were incubated at 37° C. for 5 hours in an atmosphere of 5% CO2. […] Supernatants were harvested and assayed for TNF-α, IL-1β, IL-6 and IL-8 by ELISA as described by the manufacturer. (OptiEIA ELISA sets, BD Biosciences, Pharmingen). The 50% inhibitory concentration (IC50) values were calculated by a nonlinear regression method using GraphPad software (Prism 3.03).
(In general: An ELISA detects its analyte on a solid surface through an enzyme-linked reagent.)

The test system of another experiment is ICAM-1. Put plainly: TNF-α induced cell surface expression of ICAM-1 on HUVECs. The conditions noted are these: Homo sapiens, HUVEC; TNF-α (1 ng/mL) stimulated HUVECs, 4 hours, n=2. Here is the method:
(§1) The assay was designed as in reference, Transplantation, 1997, 63(5), 759-764, the disclosure of which is incorporated herein by reference for the teaching of the assay.
(§2) Human umbilical vein endothelial cells (HUVECs) were obtained from Cascade Biologics (Oregon-USA). Cells were cultured in M-200 medium (Cascade Biologics) supplemented with low serum growth supplements (LSGS) (Cascade Biologics), penicillin-G (100 U/mL), streptomycin (100 μg/mL) and amphotericin B (50 ng/mL) (GIBCO). […] After TNF-α stimulation (1 ng/mL) (R&D Systems (Minneapolis, Minn.)) for 4 hours at 37° C. in an atmosphere of 5% CO2, supernatants were harvested and assayed for the expression of ICAM-1 (intercellular cell adhesion molecules), whereas the expressions of VCAM-1 (vascular cell adhesion molecules) and E-selectin were evaluated after 6 hours of stimulation. […] To quantitatively measure the amount of cell surface expressions of ICAM-1, VCAM-1 and E-selectin, ELISA assay was performed using anti-ICAM-1 (clone BBIG-I1), anti-VCAM-1 (clone BBIG-V1), anti-E-selectin (clone BBIG-E4) antibodies, isotype control mouse IgG1 (clone 11711.11) and the secondary antibody (anti-mouse IgG-HRP antibody) which were procured from R&D Systems (Minneapolis, Minn., USA). […]

Another experiment has as its system E-selectin. Put plainly: TNF-α induced cell surface expression of E-selectin on HUVECs. The conditions noted are these: Homo sapiens, HUVEC; TNF-α (1 ng/mL) stimulated HUVECs, 6 hours, n=2. Here is the method: as §1, §2

For orientation: IC50 means the point on the concentration scale where inhibition reaches its midpoint. Consider `CN1CC[C@@H](c2c(O)cc(O)c3c(=O)cc(-c4ccc(C(F)(F)F)cc4Cl)oc23)[C@@H]1CO.Cl` [Compound of example 3, (+)-trans-2-(2-Chloro-4-trifluoromethyl-phenyl)-5,7-dihydroxy-8-(2-hydroxymethyl-1-methyl-pyrrolidin-3-yl)-chromen-4-one hydrochloride], for which the 50% inhibitory concentration (IC50) in the experiment on TNF-α (LPS-induced release from hPBMCs (Table 1A), read-out: IC50 TNF-α) amounted to 1000 nM; in the experiment on TNF-α (LPS-stimulated hPBMCs, 5 hours, read-out: Activity (TNF-α) IC50), 1000 nM; with ICAM-1, 670 nM; with E-selectin, 650 nM.
